# Values quoted from earlier work as cited in patent US20070128633A1, “Cell-free protein expression systems and methods of use thereof” (ChemBridge Research Laboratories, Inc., priority 2005, published 2007).
# Experiments:
# [1] = tested on: KIT variants containing 2 out of these 6 mutations; settings: KIT variants with 2 of 6 catalytic domain point mutations found in seminomas; Kemmer et al. (2004)
# [2] = target: KIT active site mutation D816V (Homo sapiens, UniProt P10721, D816V); settings: sporadic adult human mastocytosis, Ma et al. (2002)
# streptavidin = streptavidin (Streptomyces avidinii, UniProt P22629); settings: tag fused to the C- or N-termini of a recombinant protein; Skerra and Schmidt (2000)
# KIT active site mutation D816V, sequence (P10721 26-976 D816V): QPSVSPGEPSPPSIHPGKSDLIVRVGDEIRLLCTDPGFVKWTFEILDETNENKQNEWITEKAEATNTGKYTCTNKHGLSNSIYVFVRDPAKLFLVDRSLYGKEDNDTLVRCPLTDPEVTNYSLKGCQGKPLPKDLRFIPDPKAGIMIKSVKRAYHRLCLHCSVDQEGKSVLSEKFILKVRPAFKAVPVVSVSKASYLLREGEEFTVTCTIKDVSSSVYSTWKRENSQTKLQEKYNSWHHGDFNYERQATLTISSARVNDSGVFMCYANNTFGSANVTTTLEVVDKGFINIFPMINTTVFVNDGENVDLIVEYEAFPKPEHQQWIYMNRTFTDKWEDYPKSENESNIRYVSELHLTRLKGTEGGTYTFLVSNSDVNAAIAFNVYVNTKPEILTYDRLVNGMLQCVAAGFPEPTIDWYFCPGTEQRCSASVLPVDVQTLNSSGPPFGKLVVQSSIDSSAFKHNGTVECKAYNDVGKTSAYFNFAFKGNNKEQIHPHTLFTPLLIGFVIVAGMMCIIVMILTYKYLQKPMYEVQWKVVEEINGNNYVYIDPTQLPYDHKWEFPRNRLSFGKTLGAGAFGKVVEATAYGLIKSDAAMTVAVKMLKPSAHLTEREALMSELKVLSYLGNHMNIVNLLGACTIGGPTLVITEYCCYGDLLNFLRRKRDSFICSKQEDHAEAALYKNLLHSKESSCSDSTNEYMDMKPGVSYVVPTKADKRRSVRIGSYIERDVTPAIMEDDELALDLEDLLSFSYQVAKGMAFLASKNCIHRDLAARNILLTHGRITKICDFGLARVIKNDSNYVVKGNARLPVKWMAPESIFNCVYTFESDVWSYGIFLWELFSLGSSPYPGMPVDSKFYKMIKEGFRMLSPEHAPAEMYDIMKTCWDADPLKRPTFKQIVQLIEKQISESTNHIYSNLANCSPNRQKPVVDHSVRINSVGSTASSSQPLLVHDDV
response to imatinib treatment [2],Molecule,inhibition of KIT variants [1],Kd (streptavidin)
resistance,Cc1ccc(NC(=O)c2ccc(CN3CCN(C)CC3)cc2)cc1Nc1nccc(-c2cccnc2)n1 [imatinib],not inhibited,–
–,WSHPQFEK [Strep-Tag II],–,18 µM
